Test results published in PMC8705693, “Roles of the Na^+/H^+ Exchanger Isoform 1 and Urokinase in Prostate Cancer Cell Migration and Invasion” (International Journal of Molecular Sciences, 2021).
“Also recorded” adds a separate entry of the source.

Experiments:
[1] = tested on: LNCaP; set-up: method as in PMID 9044824; details: LNCaP xenografted SCID mice, high doses; cited from earlier work
[2] = tested on: DU 145; set-up: method as in PMID 9044824; details: DU 145 xenografted SCID mice, high doses; cited from earlier work
[3] = tested on: NHE1; set-up: method as in PMID 21544803; details: cited from earlier work
[4] = molecular target: T1, NHE1 (Homo sapiens, UniProt P19634); test: Na+/H+ exchanger activity, double ammonium chloride pulse assay in DU 145 cells; assay type: cell-based
T1 construct: the activity of the NHE1 protein in DU 145 cells; host or cells: DU 145 human prostate cancer cells
T1 sequence (P19634 whole entry): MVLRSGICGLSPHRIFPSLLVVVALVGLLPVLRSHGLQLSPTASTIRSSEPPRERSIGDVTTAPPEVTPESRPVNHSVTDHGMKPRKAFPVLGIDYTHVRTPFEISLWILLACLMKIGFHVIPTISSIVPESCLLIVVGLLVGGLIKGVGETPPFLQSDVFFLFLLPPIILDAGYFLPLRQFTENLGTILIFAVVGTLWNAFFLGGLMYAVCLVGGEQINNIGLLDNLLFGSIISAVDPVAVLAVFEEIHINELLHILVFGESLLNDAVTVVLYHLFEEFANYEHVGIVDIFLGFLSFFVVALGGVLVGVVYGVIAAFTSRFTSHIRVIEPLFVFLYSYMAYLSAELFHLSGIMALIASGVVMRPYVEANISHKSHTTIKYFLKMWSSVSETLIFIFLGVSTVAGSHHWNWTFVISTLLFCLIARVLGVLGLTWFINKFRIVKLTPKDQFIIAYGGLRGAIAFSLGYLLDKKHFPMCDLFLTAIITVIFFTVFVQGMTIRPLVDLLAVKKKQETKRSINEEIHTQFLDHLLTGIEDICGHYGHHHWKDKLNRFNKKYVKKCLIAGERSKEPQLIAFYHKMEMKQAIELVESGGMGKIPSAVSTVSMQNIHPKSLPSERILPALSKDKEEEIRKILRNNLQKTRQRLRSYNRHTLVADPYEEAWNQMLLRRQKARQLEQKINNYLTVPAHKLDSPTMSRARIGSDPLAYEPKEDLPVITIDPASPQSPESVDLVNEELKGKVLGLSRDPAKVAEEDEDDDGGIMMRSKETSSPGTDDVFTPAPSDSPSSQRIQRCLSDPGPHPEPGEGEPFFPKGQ
Method: We next tested the efficacy of a new family of NHE inhibitors on the activity of the NHE1 protein in DU 145 cells. In order to do this, we used a double-pulse assay, in which there were two consecutive ammonium-chloride-induced acidifications. The rate of recovery in the second pulse in the presence of the inhibitor was measured relative to that of the first pulse in the absence of the inhibitor. In control experiments, we observed that the second pulse, in the absence of the inhibitor, was equivalent to that of the first (Figure 3A). […] A summary of the results is shown in Figure 3C–G, [32] and a summary of the IC50 values can be found in Table 1. […]
Figure 3 Characterization of the effects of pharmacological compounds on the activity of the Na^+/H^+ exchanger using the double-pulse assay. Na^+/H^+ exchanger activity was determined as described in Figure 2 and in the Section 4, using a dual ammonium chloride pulse assay. The rate of recovery in the first pulse, in the absence of the drug, was measured. […]
Intracellular pH was measured using 2′,7-bis(2-carboxyethyl)-5(6) carboxyfluorescein acetoxymethyl ester (BCECF-AM), in a similar manner to that described in [29]. […] Cells were loaded with BCECF and fluorescence was measured using a PTI Deltascan spectrofluorometer. NHE1 activity was measured after inducing an acute acid load using ammonium chloride. […]

[5] = molecular target: uPA (Homo sapiens, UniProt P00749); test: uPA activity assay; assay type: biochemical
Method: We next tested the efficacy of a new family of NHE inhibitors on the activity of the NHE1 protein in DU 145 cells. In order to do this, we used a double-pulse assay, in which there were two consecutive ammonium-chloride-induced acidifications. The rate of recovery in the second pulse in the presence of the inhibitor was measured relative to that of the first pulse in the absence of the inhibitor. In control experiments, we observed that the second pulse, in the absence of the inhibitor, was equivalent to that of the first (Figure 3A). […] A summary of the results is shown in Figure 3C–G, [32] and a summary of the IC50 values can be found in Table 1. The various compounds tested had differing potencies towards NHE1 activity. […] Figure 3C–G also show the inhibition of uPA activity for each compound on the same plots (red line), assayed as indicated in the Section 4. […] (Table 1).
Synthesis of NHE1/uPA inhibitors was as described previously, as was the determination of uPA activity, where each compound was described as the number in parentheses: BB2-50F (5), BB2-30F (26), AA1-111 (29), and AA1-135 (30).

[6] = tested on: DU 145 cells; test: Anchorage-dependent colony formation; assay type: cell-based, human; details: 10 µM, 8 days
Method: To examine anchorage-dependent colony formation, we used 60 mm polystyrene dishes that had been coated to introduce hydrophilic groups producing a standard growth surface (Sarstedt, Numbrecht, Germany). To measure anchorage-dependent colony growth, the cells were plated into in the 60 mm dishes at a density of 1000 cells per dish. They were grown in complete growth media. To examine the effects of various compounds, 2–30 µM of the indicated drugs were added to culture dishes. An equal volume of DMSO (vehicle) alone was added to otherwise-untreated controls. After growth for 8 days, colonies were fixed in ice-cold methanol; they were stained with 0.5% crystal violet in methanol and washed, and then left to air-dry. The colonies of > 50 cells/colony were imaged and counted. The number of […] colonies was normalized to the number of control colonies and presented as a percentage of control colonies formed.

[7] = molecular target: T1, NHE1; test: Na+/H+ exchanger activity, recovery from acute acid load (BCECF); assay type: cell-based; details: 10 µM
Description: In the next series of experiments, we used NHE1 activity assays to examine the activity of wild-type DU 145 cells and the knockout cell line. […] For the wild type, it illustrates the initial pH, alkalinization caused by ammonium chloride, and the recovery from acidification caused by the removal of ammonium chloride. The recovery upon reintroduction of NaCl is illustrated for both wild-type and knockout cells (Figure 2A,B), and a summary of six experiments is shown in Figure 2E. For wild-type cells, the recovery was robust, at a rate of over 0.008 pH units/s. […] This may be due to either leakage out of the cell, or to the action of other proton transporters present in cells. […]
Figure 2 Na^+/H^+ exchanger activity in parental DU 145 cells, in NHE1-knockout cells (NHE1-KO), and in knockout cells that had NHE1 reintroduced (NHE1-RI). […] The intracellular pH was recorded in cells transiently acidified using ammonium chloride addition. […] (E) Bar graph showing a summary of the initial rate of recovery; this was measured relative to the wild-type protein and recorded as delta pH/s. n ≥ 6, mean +/− SE. […] The activity of NHE1 was calculated from the changes over the first 20 s of recovery from the acid load, and was expressed as ΔpH/s. […]
Intracellular pH was measured using 2′,7-bis(2-carboxyethyl)-5(6) carboxyfluorescein acetoxymethyl ester (BCECF-AM), in a similar manner to that described in [29]. […]

[8] = tested on: DU 145 cells; test: Cell migration, wound-healing assay; assay type: cell-based, human
Method: Figure 4 Effects of NHE1-KO or NHE1 inhibition on cell migration examined in wild-type (WT) and NHE1-knockout (KO) DU 145 cells. The rate of closure of the induced gap was evaluated using the wound-healing assay, as described in the Section 4. (A) Examples of the effects of NHE1-KO on wound closure. Upper panel: example of WT DU 145 cells with gaps at 0 and 24 h. Middle panel: example of DU 145 NHE1 KO cells at 0 and 24 h. Lower panel: example of RI cell growth. (B) Summary of results; * indicates significant differences from the same group at 0 h, p < 0.05, n ≥ 6. (C,D) Effects of different concentrations of various NHE1/uPA inhibitors on migration (gap closure) of DU 145 cells. CT: control; EMD: EM87580; other compounds are as names. (C) Summary of the effects of 2 µM of various compounds on the migration of wild-type DU 145 cells. (D) Summary of the effects of 10 µM of various compounds on the migration of wild-type DU 145 cells (BB2-30F was used at 30 µM); * indicates significant differences from untreated control cells at p < 0.05.
Cell migration was studied using a wound-healing assay similar to that described in [13]. Briefly, cells were seeded in 12-well plates ([…]) the day before assay, and then grown to a confluent monolayer. A “scratch” was created in the cell monolayer with a p20 pipette tip in a straight line. The cells were washed twice with PBS to remove the debris, and the medium was changed to 2 mL of growth medium. To obtain the same field during image acquisition, three crosses were marked on the outside of each well as a reference. The scratch gaps above and below the crosses were measured. We acquired six images of the scratch for each well using a Leica DM IRB microscope (at 10× magnification). Arbitrary measurements of gap closure were quantified using Image-Pro Plus software. A minimum of six images/well and five measurements/image were acquired for each treatment; all treatments were repeated at least three times. Data shown are representative of the decrease in gap distance at 24 h, compared to the initial measurement at 0 h. […]

Row | NHE1 inhibition (in words) ([4]; 2 µM) | IC50 ([4]; DU 145 cells, double-pulse assay, read-out: Potency (IC50) towards NHE1) [nM] | uPA inhibition (in words) ([5]; 2 µM) | NHE1 activity (initial rate of recovery) ([7]; RI cells (NHE1 reintroduced into KO DU 145)) | NHE1 activity (initial rate of recovery) ([7]; wild-type DU 145 cells) | Structure (SMILES) | tumor growth [1] | tumor growth [2] | inhibition of NHE1 (in words) [3] | inhibition of uPA activity (in words) [5] | anchorage-dependent colony formation [6] | cell migration ([8]; 2 µM, DU 145) | cell migration (gap closure) ([8]; 10 µM, 24 h, wild-type DU 145) | migration (gap closure) ([8]; any of the groups, including wild-type and RI DU 145 cells)
1 |  |  |  |  |  | N=C(N)NC(=O)c1nc(Cl)c(N)nc1N [Amiloride] | inhibit | inhibit | low μM inhibitor |  |  |  |  | 
2 | complete NHE1 inhibition | 450 | minimal inhibition of uPA | eliminated | eliminated | [H]/N=C(\N)NC(=O)c1cc(S(C)(=O)=O)c(S(C)(=O)=O)cc1C [EMD87580, rimeporide] |  |  |  | no inhibitory activity; also recorded: no effect on uPA | no effect | lack of effect | only very slight, non-significant effects | did not reduce migration
